According to PubChem BioAssay (NCI):
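Interpolation was linear, between the two tested concentrations surrounding the appropriate level; five concentrations were tested over 48 hours in 96-well plates. At the GI50, growth is halved. TGI is the concentration that stops growth completely.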

Assays:
Test in all cases: NCI-60 cell line screen, 48 h
[1] = system: 786-0 renal
[2] = system: A549 NSCLC
[3] = system: ACHN renal
[4] = system: BT-549 breast
[5] = system: CAKI-1 renal
[6] = system: COLO 205 colon
[7] = system: DU-145 prostate
[8] = system: EKVX NSCLC
[9] = system: HCC-2998 colon
[10] = system: HCT-116 colon
[11] = system: HCT-15 colon
[12] = system: HOP-62 NSCLC
[13] = system: HOP-92 NSCLC
[14] = system: HS 578T breast
[15] = system: HT29 colon
[16] = system: IGROV1 ovarian
[17] = system: K-562 leukemia
[18] = system: KM12 colon
[19] = system: LOX IMVI melanoma
[20] = system: M14 melanoma
[21] = system: MALME-3M melanoma
[22] = system: MCF7 breast
[23] = system: MDA-MB-231 breast
[24] = system: MDA-MB-435
[25] = system: MOLT-4 leukemia
[26] = system: NCI-H226 lung
[27] = system: NCI-H23 lung
[28] = system: NCI-H460 lung
[29] = system: NCI-H522 lung
[30] = system: NCI/ADR-RES ovarian
[31] = system: OVCAR-3 ovarian
[32] = system: OVCAR-4 ovarian
[33] = system: OVCAR-5 ovarian
[34] = system: OVCAR-8 ovarian
[35] = system: PC-3 prostate
[36] = system: RXF 393 renal
[37] = system: SF-268 CNS
[38] = system: SF-295 CNS
[39] = system: SF-539 CNS
[40] = system: SK-MEL-2 melanoma
[41] = system: SK-MEL-28 melanoma
[42] = system: SK-MEL-5 melanoma
[43] = system: SK-OV-3 ovarian
[44] = system: SN12C renal
[45] = system: SNB-19 CNS
[46] = system: SNB-75 CNS
[47] = system: SW-620 colon
[48] = system: T-47D breast
[49] = system: TK-10 renal
[50] = system: U251 CNS
[51] = system: UACC-257 melanoma
[52] = system: UACC-62 melanoma
[53] = system: UO-31 renal
[54] = system: A498 renal
[55] = system: CCRF-CEM leukemia
[56] = system: HL-60(TB) leukemia
[57] = system: RPMI-8226 leukemia
[58] = system: SR leukemia

Cc1ccc(S(=O)(=O)NC(CCCCN)C(=O)CCl)cc1 (stereo not drawn)
GI50 [1]: 73.2 µM | TGI [1]: > 100 µM | GI50 [2]: > 100 µM | TGI [2]: > 100 µM | GI50 [3]: 92.7 µM | TGI [3]: > 100 µM | GI50 [4]: 27.6 µM | TGI [4]: 89.6 µM | GI50 [5]: 37.8 µM | TGI [5]: > 100 µM | GI50 [6]: 41.1 µM | TGI [6]: > 100 µM | GI50 [7]: 81.2 µM | TGI [7]: > 100 µM | GI50 [8]: 27.3 µM | TGI [8]: 93.4 µM | GI50 [9]: 37.4 µM | TGI [9]: > 100 µM | GI50 [10]: 90.7 µM | TGI [10]: > 100 µM | GI50 [11]: 72.4 µM | TGI [11]: > 100 µM | GI50 [12]: 63.5 µM | TGI [12]: > 100 µM | GI50 [13]: 20.2 µM | TGI [13]: 67.1 µM | GI50 [14]: 40.9 µM | TGI [14]: > 100 µM | GI50 [15]: > 100 µM | TGI [15]: > 100 µM | GI50 [16]: > 100 µM | TGI [16]: > 100 µM | GI50 [17]: 38.7 µM | TGI [17]: > 100 µM | GI50 [18]: 55.9 µM | TGI [18]: > 100 µM | GI50 [19]: 45.4 µM | TGI [19]: > 100 µM | GI50 [20]: > 100 µM | TGI [20]: > 100 µM | GI50 [21]: 68.7 µM | TGI [21]: > 100 µM | GI50 [22]: 57.9 µM | TGI [22]: > 100 µM | GI50 [23]: > 100 µM | TGI [23]: > 100 µM | GI50 [24]: 22.2 µM | TGI [24]: 67.9 µM | GI50 [25]: 86.6 µM | TGI [25]: > 100 µM | GI50 [26]: 79.9 µM | TGI [26]: > 100 µM | GI50 [27]: > 100 µM | TGI [27]: > 100 µM | GI50 [28]: > 100 µM | TGI [28]: > 100 µM | GI50 [29]: 31 µM | TGI [29]: > 100 µM | GI50 [30]: 81.3 µM | TGI [30]: > 100 µM | GI50 [31]: 33.2 µM | TGI [31]: > 100 µM | GI50 [32]: > 100 µM | TGI [32]: > 100 µM | GI50 [33]: > 100 µM | TGI [33]: > 100 µM | GI50 [34]: > 100 µM | TGI [34]: > 100 µM | GI50 [35]: 52.6 µM | TGI [35]: > 100 µM | GI50 [36]: 54.2 µM | TGI [36]: > 100 µM | GI50 [37]: 67.5 µM | TGI [37]: > 100 µM | GI50 [38]: 27.2 µM | TGI [38]: 77 µM | GI50 [39]: 22.3 µM | TGI [39]: 53.6 µM | GI50 [40]: 67.5 µM | TGI [40]: > 100 µM | GI50 [41]: > 100 µM | TGI [41]: > 100 µM | GI50 [42]: 47.8 µM | TGI [42]: > 100 µM | GI50 [43]: > 100 µM | TGI [43]: > 100 µM | GI50 [44]: 35.6 µM | TGI [44]: 77.2 µM | GI50 [45]: 47.8 µM | TGI [45]: > 100 µM | GI50 [46]: > 100 µM | TGI [46]: > 100 µM | GI50 [47]: 43.1 µM | TGI [47]: > 100 µM | GI50 [48]: > 100 µM | TGI [48]: > 100 µM | GI50 [49]: 90.5 µM | TGI [49]: > 100 µM | GI50 [50]: 29 µM | TGI [50]: > 100 µM | GI50 [51]: > 100 µM | TGI [51]: > 100 µM | GI50 [52]: 58.3 µM | TGI [52]: > 100 µM | GI50 [53]: > 100 µM | TGI [53]: > 100 µM

CC1SC(c2cccc(Oc3ccccc3)c2)N(CCc2cccs2)C1=O (stereo not drawn)
GI50 [1]: 1.2 µM | TGI [1]: 2.83 µM | GI50 [54]: 1.21 µM | TGI [54]: 2.46 µM | GI50 [2]: 0.864 µM | TGI [2]: 3.67 µM | GI50 [3]: 1.14 µM | TGI [3]: 4.97 µM | GI50 [4]: 1.04 µM | TGI [4]: 2.4 µM | GI50 [5]: 0.519 µM | TGI [5]: 3.37 µM | GI50 [55]: 0.747 µM | TGI [55]: > 24 µM | GI50 [6]: 1.5 µM | TGI [6]: 3.05 µM | GI50 [7]: 1.6 µM | TGI [7]: 3.88 µM | GI50 [8]: 0.368 µM | TGI [8]: 1.92 µM | GI50 [9]: 1.88 µM | TGI [9]: 5.75 µM | GI50 [10]: 0.457 µM | TGI [10]: 1.76 µM | GI50 [11]: 1.08 µM | TGI [11]: 3.77 µM | GI50 [56]: 1.17 µM | TGI [56]: 6.56 µM | GI50 [12]: 1.6 µM | TGI [12]: 3.42 µM | GI50 [13]: 0.486 µM | TGI [13]: 1.86 µM | GI50 [15]: 1.08 µM | TGI [15]: 2.93 µM | GI50 [16]: 1.07 µM | TGI [16]: 3.33 µM | GI50 [17]: 0.573 µM | TGI [17]: 7.79 µM | GI50 [18]: 0.626 µM | TGI [18]: 2.49 µM | GI50 [19]: 0.883 µM | TGI [19]: 2.11 µM | GI50 [20]: 1.02 µM | TGI [20]: 2.34 µM | GI50 [21]: 1.73 µM | TGI [21]: 3.58 µM | GI50 [22]: 0.551 µM | TGI [22]: 5.07 µM | GI50 [23]: 1.09 µM | TGI [23]: 2.58 µM | GI50 [24]: 1.19 µM | TGI [24]: 3.14 µM | GI50 [25]: 0.77 µM | TGI [25]: 4.97 µM | GI50 [26]: 1.28 µM | TGI [26]: 2.94 µM | GI50 [27]: 0.718 µM | TGI [27]: 3.55 µM | GI50 [28]: 1.09 µM | TGI [28]: 2.49 µM | GI50 [29]: 0.717 µM | TGI [29]: 2.12 µM | GI50 [30]: 0.708 µM | TGI [30]: 3.01 µM | GI50 [31]: 1.08 µM | TGI [31]: 2.3 µM | GI50 [32]: 0.425 µM | TGI [32]: 1.88 µM | GI50 [33]: 1.94 µM | TGI [33]: 5.89 µM | GI50 [34]: 1.49 µM | TGI [34]: 5.06 µM | GI50 [35]: 0.595 µM | TGI [35]: 3.37 µM | GI50 [57]: 0.542 µM | TGI [57]: 2.94 µM | GI50 [37]: 1.18 µM | TGI [37]: 3.6 µM | GI50 [38]: 0.725 µM | TGI [38]: 2.23 µM | GI50 [39]: 1.5 µM | TGI [39]: 3.11 µM | GI50 [40]: 1.03 µM | TGI [40]: 2.31 µM | GI50 [41]: 1.42 µM | TGI [41]: 2.78 µM | GI50 [42]: 0.607 µM | TGI [42]: 1.87 µM | GI50 [43]: 1.92 µM | TGI [43]: 5.32 µM | GI50 [44]: 1.25 µM | TGI [44]: 2.7 µM | GI50 [45]: 1.64 µM | TGI [45]: 9.01 µM | GI50 [46]: 1.3 µM | TGI [46]: 3.71 µM | GI50 [58]: 0.585 µM | TGI [58]: 4.19 µM | GI50 [47]: 1.4 µM | TGI [47]: 3 µM | GI50 [48]: 0.594 µM | TGI [48]: 5.11 µM | GI50 [49]: 1.59 µM | TGI [49]: 4.28 µM | GI50 [50]: 1.11 µM | TGI [50]: 2.49 µM | GI50 [51]: 1.25 µM | TGI [51]: 3.3 µM | GI50 [52]: 0.676 µM | TGI [52]: 2.22 µM | GI50 [53]: 0.469 µM | TGI [53]: 1.9 µM
